# Laboratory results from PMC9098913, “In vitro reconstitution of Escherichia coli divisome activation” (Nature Communications, 2022).
# “And” between values parts separate entries of the source, which are not always exact repeats. Equal values may be shown once. Read-outs that look alike come from different tables or passages of the source.
# Key:
# [1] = system: FtsZ;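 as to FtsZ autocorrelation T: FtsZ filament patterns imaged by time-lapse TIRF microscopy, one frame per 2 s, with ATP and GTP, Pearson correlation of first frame versus later frames, monoexponential fit, slower decay means persistent structures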;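 as to FtsZ autocorrelation: FtsZ filament patterns imaged by time-lapse TIRF microscopy, one frame per 2 s, with ATP and GTP, Pearson correlation of first frame versus later frames, monoexponential fit, slower decay means persistent structures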;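 as to PCC FtsA/FtsZ, mean of experiment (head 'Fig.1e PCC'; n and values fit Fig. 1f PCCdiff): pearson correlation of FtsA and FtsZ channels in dual-colour TIRF movies after subtracting consecutive frames to isolate growing filament ends, one frame per 2 s, ATP and GTP present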;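 as to PCCdiff FtsA/FtsZ: pearson correlation of FtsA and FtsZ channels in dual-colour TIRF movies after subtracting consecutive frames to isolate growing filament ends, one frame per 2 s, ATP and GTP present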
# From the text: For this aim, we prepared differential time lapse movies[24], where we subtract the intensities of consecutive frames to selectively visualize the growing ends of filament bundles (Fig. 1d). We then calculated the Pearson correlation coefficient between the two channels of the differential movies (PCCdiff), which quantifies the covariation of the fluorescence signals for FtsA and FtsZ at the growing end of a filament bundle with a time resolution of the acquisition rate[4],[23],[24].
# (§1) Additionally, the reaction chamber contained 4 mM ATP and 4 mM GTP, as well as a scavenging system to minimize photobleaching effects: 30 mM d-glucose, 0.050 mg ml^−1 Glucose Oxidase, 0.016 mg ml^−1 Catalase, 1 mM DTT and 1 mM Trolox. Prior addition of all components a corresponding buffer volume was removed from the chamber to obtain a total reaction volume of 100 µl. The dynamic protein pattern was monitored by time-lapse TIRF microscopy at one frame per 2 s and 50 ms exposure time.
# Treadmilling dynamics, were quantified using an automated image analysis protocol previously developed by our group[24]. To visualize colocalization of the co-treadmilling FtsZ & FtsA filaments, we used dual-colour videos obtained at an acquisition rate of one frame per 2 s. The two channels were aligned using FIJI’s 3TP align plugin. Both channels were then subjected to the image subtraction protocol and colocalization was measured as described above.
# [2] = system: FtsZ; details: for FtsZ autocorrelation T: mean; for Autocorrelation Decay Tau: Fig. S2i, + FtsN;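 as to FtsZ autocorrelation T: FtsZ filament patterns imaged by time-lapse TIRF microscopy, one frame per 2 s, with ATP and GTP, Pearson correlation of first frame versus later frames, monoexponential fit, slower decay means persistent structures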;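 as to FtsZ autocorrelation: FtsZ filament patterns imaged by time-lapse TIRF microscopy, one frame per 2 s, with ATP and GTP, Pearson correlation of first frame versus later frames, monoexponential fit, slower decay means persistent structures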;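 as to PCC FtsA/FtsZ, mean of experiment (head 'Fig.1e PCC'; n and values fit Fig. 1f PCCdiff): pearson correlation of FtsA and FtsZ channels in dual-colour TIRF movies after subtracting consecutive frames to isolate growing filament ends, one frame per 2 s, ATP and GTP present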;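 as to PCCdiff FtsA/FtsZ: pearson correlation of FtsA and FtsZ channels in dual-colour TIRF movies after subtracting consecutive frames to isolate growing filament ends, one frame per 2 s, ATP and GTP present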
# Method: as §1
# To measure reorganization dynamics of FtsZ filaments, we used a temporal correlation analysis based on the Image CorrelationJ 1o plugin. We quantified the PCC between the first frame to subsequent frames with increasing time lag (∆t). The decrease in the PCC was plotted against ∆t to obtain autocorrelation curves. Slower decay indicates more persistent structures. The rates of decay were extracted by fitting monoexponential decay to the autocorrelation curves y=a⋅e^−b⋅t+k , where a is the starting point, b is the decay rate and k is the final offset. The half time of the monoexponential decay was calculated via the decay rate.
# [3] = Single-molecule diffusion coefficient of FtsA on the membrane; details: for Diffusion Coefficient: single-particle tracking, n = 3; for Single Molecule Diffusion Constant, mean: mean of Exp. 1-3, n = 3, Fig. 3b
# Method: First, we studied the behaviour of single FtsA proteins on the membrane surface.
# After 5 min of incubation, single molecule time lapses were acquired every 125, 250, 500, and 1000 and 2000 ms, with an exposure time of 50 ms. Subsequently, the bulk concentration of FtsA was increased to 0.2/0.4/0.8 µM and time lapses were repeated as described above.
# Single molecules of FtsA or FtsZ were tracked using the TrackMate plugin from ImageJ[43]. To obtain the residence time of FtsZ and FtsA, we performed a residence time analysis as described before[40],[47]. Shortly, single molecules were imaged at different acquisition rates (0.1–2 s) and the lifetime of the molecules was extracted from each data set. To account for photobleaching effect, the obtained lifetimes were plotted against the acquisition rate. […] Furthermore, we extracted the diffusion coefficient of FtsA single molecules at increasing concentrations. For this, we filtered the obtained data, by considering only trajectories which are present on the membrane for more than 0.4 s. […] Subsequently, the diffusion coefficient of FtsA molecules was estimated by fitting an MSD curve to each individual trajectory.
# [4] = system: FtsA/Z co-filaments; format: biochemical, E. coli; details: Fig. 2g, mean
# Method: By fitting an exponential function to the increase of the PCC with time, we were able to extract the corresponding recruitment rate (Fig. 2f, g).
# Subsequently, the chamber was washed 6x with reaction buffer, to remove bulk peptide. To visualize colocalization with either FtsZ or FtsA, either a mix of FtsA and Alexa488-FtsZ or Cy3-FtsA and FtsZ was added. […] The time-lapse videos were recorded for 10 min after the addition, with one frame per 2 s.
substance,measurement,setting,value
"FtsA WT: wild-type E. coli actin-homologue FtsA, membrane anchor of FtsZ","PCC FtsA/FtsZ, mean of experiment (head 'Fig.1e_PCC'; n and values fit Fig. 1f PCCdiff)","[1]; 0.1µM FtsAs, replicate column 1",0.69
same,"PCC FtsA/FtsZ, mean of experiment (head 'Fig.1e_PCC'; n and values fit Fig. 1f PCCdiff)","[1]; 0.1µM FtsAs, replicate column 2",0.76
same,"PCC FtsA/FtsZ, mean of experiment (head 'Fig.1e_PCC'; n and values fit Fig. 1f PCCdiff)","[1]; 0.1µM FtsAs, replicate column 3",0.71
same,"PCC FtsA/FtsZ, mean of experiment (head 'Fig.1e_PCC'; n and values fit Fig. 1f PCCdiff)","[1]; 0.1µM FtsAs, replicate column 4",0.71
same,"PCC FtsA/FtsZ, mean of experiment (head 'Fig.1e_PCC'; n and values fit Fig. 1f PCCdiff)","[1]; 0.1µM FtsAs, replicate column 5",0.86
same,"PCC FtsA/FtsZ, mean of experiment (head 'Fig.1e_PCC'; n and values fit Fig. 1f PCCdiff)","[1]; 0.1µM FtsAs, replicate column 6",0.67
same,"PCC FtsA/FtsZ, mean of experiment (head 'Fig.1e_PCC'; n and values fit Fig. 1f PCCdiff)","[1]; 0.2µM FtsAs, replicate column 1",0.62
same,"PCC FtsA/FtsZ, mean of experiment (head 'Fig.1e_PCC'; n and values fit Fig. 1f PCCdiff)","[1]; 0.2µM FtsAs, replicate column 2",0.58
same,"PCC FtsA/FtsZ, mean of experiment (head 'Fig.1e_PCC'; n and values fit Fig. 1f PCCdiff)","[1]; 0.2µM FtsAs, replicate column 3",0.67
same,"PCC FtsA/FtsZ, mean of experiment (head 'Fig.1e_PCC'; n and values fit Fig. 1f PCCdiff)","[1]; 0.2µM FtsAs, replicate column 4",0.71
same,"PCC FtsA/FtsZ, mean of experiment (head 'Fig.1e_PCC'; n and values fit Fig. 1f PCCdiff)","[1]; 0.2µM FtsAs, replicate column 5",0.74
same,"PCC FtsA/FtsZ, mean of experiment (head 'Fig.1e_PCC'; n and values fit Fig. 1f PCCdiff)","[1]; 0.2µM FtsAs, replicate column 6",0.57
same,PCCdiff FtsA/FtsZ,"[1]; 0.4 µM FtsA, 1.25 µM FtsZ, mean ± s.d., p-value 1.82 × 10^−4",0.18 ± 0.04
same,"PCC FtsA/FtsZ, mean of experiment (head 'Fig.1e_PCC'; n and values fit Fig. 1f PCCdiff)","[1]; 0.4µM FtsAs, replicate column 1",0.18
same,"PCC FtsA/FtsZ, mean of experiment (head 'Fig.1e_PCC'; n and values fit Fig. 1f PCCdiff)","[1]; 0.4µM FtsAs, replicate column 2",0.12
same,"PCC FtsA/FtsZ, mean of experiment (head 'Fig.1e_PCC'; n and values fit Fig. 1f PCCdiff)","[1]; 0.4µM FtsAs, replicate column 3",0.23
same,"PCC FtsA/FtsZ, mean of experiment (head 'Fig.1e_PCC'; n and values fit Fig. 1f PCCdiff)","[1]; 0.8µM FtsAs, replicate column 1",0.10
same,"PCC FtsA/FtsZ, mean of experiment (head 'Fig.1e_PCC'; n and values fit Fig. 1f PCCdiff)","[1]; 0.8µM FtsAs, replicate column 2",0.12
same,"PCC FtsA/FtsZ, mean of experiment (head 'Fig.1e_PCC'; n and values fit Fig. 1f PCCdiff)","[1]; 0.8µM FtsAs, replicate column 3",0.05
same,FtsZ autocorrelation,"[2]; 0.1 µM FtsA, Exp. 1",103.16 s
same,FtsZ autocorrelation,"[2]; 0.1µM FtsA, Exp. 2",95.06 s
same,FtsZ autocorrelation T,[2]; 0.10 µM FtsA,86.22 s
same,FtsZ autocorrelation,"[2]; 0.2 µM FtsA, Exp. 1",137.57 s
same,FtsZ autocorrelation,"[2]; 0.2µM FtsA, Exp. 2",43.74 s
same,FtsZ autocorrelation T,[2]; 0.20 µM FtsA,87.69 s
same,FtsZ autocorrelation,"[2]; 0.4 µM FtsA, Exp. 1",70.56 s
same,FtsZ autocorrelation,"[2]; 0.4µM FtsA, Exp. 2",64.54 s
same,FtsZ autocorrelation T,[2]; 0.40 µM FtsA,64.93 s
same,FtsZ autocorrelation,"[2]; 0.8 µM FtsA, Exp. 1",56.36 s
same,FtsZ autocorrelation,"[2]; 0.8µM FtsA, Exp. 2",98.59 s
same,Autocorrelation Decay Tau,[2]; replicate 1,3.11 min
same,Autocorrelation Decay Tau,[2]; replicate 2,2.08 min
same,Autocorrelation Decay Tau,[2]; replicate 3,2.02 min
same,Single Molecule Diffusion Constant,"[3]; 0.1 µM FtsA, Exp. 1",0.1660 µm2/s
same,Single Molecule Diffusion Constant,"[3]; 0.1µM FtsA, Exp. 2",0.0799 µm2/s
same,Single Molecule Diffusion Constant,"[3]; 0.1 µM FtsA, Exp. 3",0.1610 µm2/s
same,Diffusion Coefficient,[3]; 0.1 µM FtsA,0.14 ± 0.04 µm^2/s
same,Single Molecule Diffusion Constant,"[3]; 0.2 µM FtsA, Exp. 1",0.0839 µm2/s
same,Single Molecule Diffusion Constant,"[3]; 0.2µM FtsA, Exp. 2",0.0498 µm2/s
same,Single Molecule Diffusion Constant,"[3]; 0.2 µM FtsA, Exp. 3",0.0248 µm2/s
same,"Single Molecule Diffusion Constant, mean",[3]; 0.2 µM FtsA,0.053 µm2/s and 0.0528 µm2/s
same,Single Molecule Diffusion Constant,"[3]; 0.4 µM FtsA, Exp. 1",0.0130 µm2/s
same,Single Molecule Diffusion Constant,"[3]; 0.4µM FtsA, Exp. 2",0.0096 µm2/s
same,Single Molecule Diffusion Constant,"[3]; 0.4 µM FtsA, Exp. 3",0.0225 µm2/s
same,"Single Molecule Diffusion Constant, mean",[3]; 0.4 µM FtsA,0.015 µm2/s and 0.0150 µm2/s
same,Single Molecule Diffusion Constant,"[3]; 0.8 µM FtsA, Exp. 1",0.0048 µm2/s
same,Single Molecule Diffusion Constant,"[3]; 0.8µM FtsA, Exp. 2",0.0025 µm2/s
same,Single Molecule Diffusion Constant,"[3]; 0.8 µM FtsA, Exp. 3",0.0035 µm2/s
same,Diffusion Coefficient,[3]; 0.8 µM FtsA,0.004 ± 0.001 µm^2/s
same,Recruitment rate of FtsN to FtsZ filaments,[4]; Concentration 0.10 µM,2.60
same,Recruitment rate of FtsN to FtsZ filaments,[4]; Concentration 0.20 µM,1.05
same,Recruitment rate of FtsN to FtsZ filaments,[4]; Concentration 0.40 µM,0.99
same,Recruitment rate of FtsN to FtsZ filaments,[4]; Concentration 0.80 µM,0.85
